Patent publication US10093630B2, “Pyrazole compounds and methods of making and using same” (ABIDE THERAPEUTICS, INC., priority 2014, dated 2018)

Assays:
Assay in all cases: In vitro competitive activity-based protein profiling (gel-based, FP-Rh or HT-01 probe)
Format in all cases: biochemical
ABHD6 = molecular target: T1, ABHD6 (Mus musculus, UniProt Q8R2Y0); settings: for inhibition at 10 µM: 10 μM inhibitor, read-out: % Inhibition at 10 μM, C = ABHD6; for IC50: mouse brain membrane fraction or cell lysates, 30 min preincubation at 37° C., read-out: Mouse (IC50 value, nM) ABHD6; for inhibition at 1 µM: 1 μM inhibitor, read-out: % Inhibition at 1 μM, C = ABHD6
T1 construct: Proteomes (mouse brain membrane fraction or cell lysates); from tissue; host or cells: mouse brain membrane fraction (or cell lysates, not specified)
T1 sequence (Q8R2Y0 1-336): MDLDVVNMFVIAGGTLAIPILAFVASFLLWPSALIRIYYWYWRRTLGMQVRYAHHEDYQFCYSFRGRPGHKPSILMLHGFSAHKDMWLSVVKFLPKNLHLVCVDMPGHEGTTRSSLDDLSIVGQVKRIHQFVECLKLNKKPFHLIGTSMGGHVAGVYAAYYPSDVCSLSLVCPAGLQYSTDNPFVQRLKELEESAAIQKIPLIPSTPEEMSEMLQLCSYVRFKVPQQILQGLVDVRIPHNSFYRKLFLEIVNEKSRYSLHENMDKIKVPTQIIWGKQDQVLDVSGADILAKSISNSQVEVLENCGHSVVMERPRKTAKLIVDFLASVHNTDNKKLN
Description: (§1) In Vitro Competitive Activity-Based Protein Profiling.
(§2) Proteomes (mouse brain membrane fraction or cell lysates) (50 μL, 1.0 mg/mL total protein concentration) were preincubated with varying concentrations of inhibitors at 37° C. After 30 min, FP-Rh or HT-01 ([…], 50 μM in DMSO) was added and the mixture was incubated for another 30 min at 37° C. Reactions were quenched with SDS loading buffer (15 μL—4×) and run on SDS-PAGE. Following gel imaging, serine hydrolase activity was determined by measuring fluorescent intensity of gel bands corresponding to MAGL, ABHD6, FAAH, and PLA2G7 using ImageJ 1.43u software.

FAAH = molecular target: T2, FAAH (Mus musculus, UniProt O08914); settings: for inhibition at 10 µM: 10 μM inhibitor, read-out: % Inhibition at 10 μM, B = FAAH; for IC50: mouse brain membrane fraction or cell lysates, 30 min preincubation at 37° C., read-out: Mouse (IC50 value, nM) FAAH; for inhibition at 1 µM: 1 μM inhibitor, read-out: % Inhibition at 1 μM, B = FAAH
T2 construct: Proteomes (mouse brain membrane fraction or cell lysates); from tissue; host or cells: mouse brain membrane fraction (or cell lysates, not specified)
T2 sequence (O08914 1-579): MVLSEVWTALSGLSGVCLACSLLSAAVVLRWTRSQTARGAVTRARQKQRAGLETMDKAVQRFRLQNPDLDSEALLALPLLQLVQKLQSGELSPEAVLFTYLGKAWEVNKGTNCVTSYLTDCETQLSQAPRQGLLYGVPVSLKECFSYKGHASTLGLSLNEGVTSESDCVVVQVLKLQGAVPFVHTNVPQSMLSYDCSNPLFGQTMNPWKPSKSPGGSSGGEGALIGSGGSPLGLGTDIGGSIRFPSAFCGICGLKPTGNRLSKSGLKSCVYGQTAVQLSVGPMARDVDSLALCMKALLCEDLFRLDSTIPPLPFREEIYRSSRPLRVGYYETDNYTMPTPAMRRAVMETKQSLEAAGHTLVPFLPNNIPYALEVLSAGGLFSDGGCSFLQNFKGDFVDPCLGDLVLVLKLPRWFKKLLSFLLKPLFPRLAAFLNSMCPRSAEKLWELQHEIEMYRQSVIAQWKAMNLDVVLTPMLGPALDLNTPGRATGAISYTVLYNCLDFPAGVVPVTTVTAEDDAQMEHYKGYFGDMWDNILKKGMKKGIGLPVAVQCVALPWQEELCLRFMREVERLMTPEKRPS
Description: as §1, §2

MAGL = molecular target: T3, MAGL (Mus musculus, UniProt O35678); settings: for inhibition at 10 µM: 10 μM inhibitor; for IC50: mouse brain membrane fraction or cell lysates, 30 min preincubation at 37° C., read-out: Mouse (IC50 value, nM) MAGL; for inhibition at 1 µM: 1 μM inhibitor
T3 construct: Proteomes (mouse brain membrane fraction or cell lysates); from tissue; host or cells: mouse brain membrane fraction (or cell lysates, not specified)
T3 sequence (O35678 1-303): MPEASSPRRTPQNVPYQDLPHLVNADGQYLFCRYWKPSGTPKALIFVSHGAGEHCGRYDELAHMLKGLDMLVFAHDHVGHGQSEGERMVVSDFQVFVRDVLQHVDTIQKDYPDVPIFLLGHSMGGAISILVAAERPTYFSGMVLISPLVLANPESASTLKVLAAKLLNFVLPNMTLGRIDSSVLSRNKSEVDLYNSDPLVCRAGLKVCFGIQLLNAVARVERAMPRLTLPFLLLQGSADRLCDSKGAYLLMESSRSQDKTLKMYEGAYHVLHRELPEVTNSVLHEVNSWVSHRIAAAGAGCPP
Description: as §1, §2

inhibition at 10 µM (ABHD6)	inhibition at 10 µM (FAAH)	inhibition at 10 µM (MAGL)	IC50 (ABHD6)	IC50 (FAAH)	IC50 (MAGL)	inhibition at 1 µM (ABHD6)	inhibition at 1 µM (FAAH)	inhibition at 1 µM (MAGL)	SMILES
< 25%	< 25%	< 25%	–	–	–	–	–	–	Cc1cnn(C(=O)NCc2ccc3ccccc3c2)c1 [Example 44, 4-Methyl-N-(naphthalen-2-ylmethyl)-1H-pyrazole-1-carboxamide]
–	–	–	> 1000 nM	> 1000 nM	< 100 nM	–	–	–	O=C(N1CCN(C(c2ccc(Cl)cc2)c2ccc(Cl)cc2)CC1)n1cccn1 [Example 46, (4-(Bis(4-chlorophenyl)methyl)piperazin-1-yl)(1H-pyrazol-1-yl)methanone]
–	–	–	< 100 nM	100 to 1000 nM	< 100 nM	–	–	–	O=C(N1CCN(Cc2ccc(Cl)cc2N2CCOCC2)CC1)n1cc(Cl)cn1 [Example 47, (4-Chloro-1H-pyrazol-1-yl)(4-(4-chloro-2-morpholinobenzyl)piperazin-1-yl)methanone]
–	–	–	100 to 1000 nM	> 1000 nM	100 to 1000 nM	–	–	–	O=C(c1cnn(C(=O)N2CCN(C(c3ccc(Cl)cc3)c3ccc(Cl)cc3)CC2)c1)N1CCCC1 [Example 48, (4-(Bis(4-chlorophenyl)methyl)piperazin-1-yl)(4-(pyrrolidine-1-carbonyl)-1H-pyrazol-1-yl)methanone]
–	–	–	100 to 1000 nM	> 1000 nM	100 to 1000 nM	–	–	–	O=C(NC1CC1)c1cnn(C(=O)N2CCN(C(c3ccc(Cl)cc3)c3ccc(Cl)cc3)CC2)c1 [Example 49, 1-(4-(Bis(4-chlorophenyl)methyl)piperazine-1-carbonyl)-N-cyclopropyl-1H-pyrazole-4-carboxamide]
–	–	–	< 100 nM	100 to 1000 nM	< 100 nM	–	–	–	O=C(N1CCN(Cc2ccc(Cl)cc2N2CCCC2)CC1)n1cc(Cl)cn1 [Example 50, (4-Chloro-1H-pyrazol-1-yl)(4-(4-chloro-2-(pyrrolidin-1-yl)benzyl)piperazin-1-yl)methanone]
> 75%	25 to 75%	> 75%	100 to 1000 nM	> 1000 nM	100 to 1000 nM	> 75%	< 25%	> 75%	O=C(c1cnn(C(=O)N2CCN(C(c3ccc(Cl)cc3)c3ccc(Cl)cc3)CC2)c1)N1CCCCC1 [Example 66, (4-(Bis(4-chlorophenyl)methyl)piperazin-1-yl)(4-(piperidine-1-carbonyl)-1H-pyrazol-1-yl)methanone]
> 75%	> 75%	> 75%	100 to 1000 nM	> 1000 nM	100 to 1000 nM	> 75%	< 25%	> 75%	O=C(c1cnn(C(=O)N2CCN(C(c3ccc(Cl)cc3)c3ccc(Cl)cc3)CC2)c1)N1CCC1 [Example 68, Azetidin-1-yl(1-(4-(bis(4-chlorophenyl)methyl)piperazine-1-carbonyl)-1H-pyrazol-4-yl)methanone]
–	–	–	> 1000 nM	100 to 1000 nM	< 100 nM	–	–	–	Cc1cc(-c2ccccc2)ccc1CN1CCN(C(=O)n2cccn2)CC1 [Example 94, (4-((3-Methyl-[1,1′-biphenyl]-4-yl)methyl)piperazin-1-yl)(1H-pyrazol-1-yl)methanone]
–	–	–	–	–	–	> 75%	< 25%	> 75%	O=C(N1CCN(C(c2ccc3c(c2)COC3)c2ccc3c(c2)COC3)CC1)n1cc(Cl)cn1 [Example 95, (4-(Bis(1,3-dihydroisobenzofuran-5-yl)methyl)piperazin-1-yl)(4-chloro-1H-pyrazol-1-yl)methanone]
> 75%	> 75%	> 75%	–	–	–	–	–	–	O=C(N1CCCCC1)n1cc(Cl)cn1 [Example 96, (4-Chloro-1H-pyrazol-1-yl)(piperidin-1-yl)methanone]
< 25%	> 75%	< 25%	–	–	–	–	–	–	O=C(N1CCOCC1)n1cc(Cl)cn1 [Example 97, (4-Chloro-1H-pyrazol-1-yl)(morpholino)methanone]
< 25%	> 75%	25 to 75%	–	–	–	–	–	–	O=C(N1CCCC1)n1cc(Cl)cn1 [Example 98, (4-Chloro-1H-pyrazol-1-yl)(pyrrolidin-1-yl)methanone]
–	–	–	–	–	–	> 75%	> 75%	> 75%	O=C(N1CCN(Cc2c(N3CCCC3)cccc2C(F)(F)F)CC1)n1cc(Cl)cn1 [Example 99, (4-Chloro-1H-pyrazol-1-yl)(4-(2-(pyrrolidin-1-yl)-6-(trifluoromethyl)benzyl)piperazin-1-yl)methanone]
–	–	–	100 to 1000 nM	> 1000 nM	< 100 nM	–	–	–	O=C(N1CCN(C(c2ccc(Cl)cc2)c2ccc(Cl)cc2)CC1)n1cc(Cl)cn1 [Example 100, (4-(Bis(4-chlorophenyl)methyl)piperazin-1-yl)(4-chloro-1H-pyrazol-1-yl)methanone]
–	–	–	–	–	–	> 75%	> 75%	> 75%	CC(C)n1cc(CN2CCN(C(=O)n3cc(Cl)cn3)CC2)c(-c2ccccc2)n1 [Example 101, (4-Chloro-1H-pyrazol-1-yl)(4-((1-isopropyl-3-phenyl-1H-pyrazol-4-yl)methyl)piperazin-1-yl)methanone]
–	–	–	< 100 nM	> 1000 nM	< 100 nM	> 75%	< 25%	> 75%	O=C(N1CCN(Cc2ccc(Cl)cc2N2CCC3(CCOCC3)C2)CC1)n1cc(Cl)cn1 [Example 102, (4-Chloro-1H-pyrazol-1-yl)(4-(4-chloro-2-(8-oxa-2-azaspiro[4.5]decan-2-yl)benzyl)piperazin-1-yl)methanone]
> 75%	> 75%	< 25%	–	–	–	–	–	–	Cc1ccc(-c2cnn(C(=O)N3CCCC3)c2)cc1 [Example 104, Pyrrolidin-1-yl(4-(p-tolyl)-1H-pyrazol-1-yl)methanone]
> 75%	> 75%	< 25%	–	–	–	–	–	–	O=C(N1CCCC1)n1cc(-c2ccc(Cl)cc2)cn1 [Example 105, (4-(4-Chlorophenyl)-1H-pyrazol-1-yl)(pyrrolidin-1-yl)methanone]
> 75%	< 25%	< 25%	–	–	–	–	–	–	O=C(N1CCCC1)n1cc(-c2ccc(-c3ccccc3Cl)cc2)cn1 [Example 108, (4-(2′-Chloro-[1,1′-biphenyl]-4-yl)-1H-pyrazol-1-yl)(pyrrolidin-1-yl)methanone]
> 75%	> 75%	25 to 75%	–	–	–	–	–	–	O=C(N1CCN(Cc2c(N3CCCC3)cccc2C(F)(F)F)CC1)n1cc(-c2ccccc2)cn1 [Example 109, (4-Phenyl-1H-pyrazol-1-yl)(4-(2-(pyrrolidin-1-yl)-6-(trifluoromethyl)benzyl)piperazin-1-yl)methanone]
> 75%	25 to 75%	> 75%	100 to 1000 nM	> 1000 nM	100 to 1000 nM	–	–	–	Cc1cnn(C(=O)N2CCN(Cc3c(N4CCCC4)cccc3C(F)(F)F)CC2)c1 [Example 111, (4-Methyl-1H-pyrazol-1-yl)(4-(2-(pyrrolidin-1-yl)-6-(trifluoromethyl)benzyl)piperazin-1-yl)methanone]
